Laboratory results taken from a compilation of properties of binary mixtures (doi:10.1524/zpch.2013.0328).

Assay: xn = mol fraction of the nth substance listed
Conditions: 100 kPa

CC(CC(C)(C)C)CP(=O)([O-])CC(C)CC(C)(C)C.CCCCCCCCCCCCCC[P+](CCCCCC)(CCCCCC)CCCCCC + O
viscosity [mPa·s]
Conditions	298.15 K	303.15 K	313.15 K	323.15 K	333.15 K	343.15 K	353.15 K
x1 = 0.1299	–	105	65	42	29	22	16
x1 = 0.7942	1004	757	439	–	170	111	78

CC(C)C[P+](C)(CC(C)C)CC(C)C.Cc1ccc(S(=O)(=O)[O-])cc1 + O
viscosity [mPa·s]
Conditions	301.15 K	313.15 K	323.15 K	333.15 K	343.15 K	353.15 K
x1 = 0.4387	264	131	–	47	–	24
x1 = 0.9022	–	887	423	–	126	–

CCCCCCCC[N+](C)(CCCCCCCC)CCCCCCCC.O=S(=O)([N-]S(=O)(=O)C(F)(F)F)C(F)(F)F + O
x1 = 0.8467
Conditions	viscosity [mPa·s]
298.15 K	601
303.15 K	426
323.15 K	144
333.15 K	92
353.15 K	46

CCCCCCCCCCCCCC[P+](CCCC)(CCCC)CCCC.CCCCCCCCCCCCc1ccc(S(=O)(=O)[O-])cc1 + O
viscosity [mPa·s]
Conditions	298.15 K	303.15 K	313.15 K	323.15 K	333.15 K	343.15 K	353.15 K
x1 = 0.3452	506	365	197	–	74	54	40
x1 = 0.892	–	–	1477	750	409	238	–

CCCCCCCCCCCCCC[P+](CCCCCC)(CCCCCC)CCCCCC.N#C[N-]C#N + O
viscosity [mPa·s]
Conditions	303.15 K	313.15 K	323.15 K	333.15 K	343.15 K	353.15 K
x1 = 0.551	138	86	53	40	28	22
x1 = 0.8444	–	196	123	82	56	41

CC[n+]1ccn(C)c1.O=S(=O)([N-]S(=O)(=O)C(F)(F)F)C(F)(F)F + O
x2 = 0.0086
Conditions	viscosity [mPa·s]
299.15 K	33
303.15 K	28
313.15 K	22
323.15 K	18
333.15 K	14
343.15 K	12
